This is an account of results in patent US10918645B2 (LIFEARC, priority 2016, dated 2021).

What all share (assay type): biochemical
Holding throughout (details): 1 μM inhibitor concentration

One test concerns the target ULK2 (Homo sapiens (Human), UniProt Q8IYT8). Put plainly: ULK2 kinase selectivity assay.
The target of a further test is Src (Homo sapiens (Human), UniProt P12931). Put plainly: Src kinase selectivity assay. Here is the method: Src (5-20 mU diluted in 50 mM Tris pH 7.5, 0.1 mM EGTA, 0.1% b-mercaptoethanol, 1 mg/ml BSA) is assayed against a substrate peptide ([…]) in a final volume of 25.5 μl containing 50 mM Tris pH 7.5, 0.05% b-mercaptoethanol, 300 μM substrate peptide, 10 mM magnesium acetate and 0.05 mM [33P-g-ATP] (50-1000 cpm/pmole) and incubated for 30 min at room temperature. Assays are stopped by addition of 5 μl of 0.5 M (3%) orthophosphoric acid and then harvested onto P81 Unifilter plates with a wash buffer of 50 mM orthophosphoric acid.

The target of a further test is TBK1 (Homo sapiens (Human), UniProt Q9UHD2). Put plainly: TBK1 kinase selectivity assay. As to the method: TBK1 (DU12569) (5-20 mU diluted in 50 mM Tris pH 7.5, 0.1 mM EGTA, 1 mg/ml BSA) is assayed against a substrate peptide ([…]) in a final volume of 25.5 μl containing 50 mM Tris pH 7.5, 300 μM substrate peptide, 10 mM magnesium acetate and 0.05 mM [33P-g-ATP] (50-1000 cpm/pmole) and incubated for 30 min at room temperature. Assays are stopped by addition of 5 μl of 0.5 M (3%) orthophosphoric acid and then harvested onto P81 Unifilter plates with a wash buffer of 50 mM orthophosphoric acid.
TBK1, sequence (Q9UHD2 whole entry, species assumed): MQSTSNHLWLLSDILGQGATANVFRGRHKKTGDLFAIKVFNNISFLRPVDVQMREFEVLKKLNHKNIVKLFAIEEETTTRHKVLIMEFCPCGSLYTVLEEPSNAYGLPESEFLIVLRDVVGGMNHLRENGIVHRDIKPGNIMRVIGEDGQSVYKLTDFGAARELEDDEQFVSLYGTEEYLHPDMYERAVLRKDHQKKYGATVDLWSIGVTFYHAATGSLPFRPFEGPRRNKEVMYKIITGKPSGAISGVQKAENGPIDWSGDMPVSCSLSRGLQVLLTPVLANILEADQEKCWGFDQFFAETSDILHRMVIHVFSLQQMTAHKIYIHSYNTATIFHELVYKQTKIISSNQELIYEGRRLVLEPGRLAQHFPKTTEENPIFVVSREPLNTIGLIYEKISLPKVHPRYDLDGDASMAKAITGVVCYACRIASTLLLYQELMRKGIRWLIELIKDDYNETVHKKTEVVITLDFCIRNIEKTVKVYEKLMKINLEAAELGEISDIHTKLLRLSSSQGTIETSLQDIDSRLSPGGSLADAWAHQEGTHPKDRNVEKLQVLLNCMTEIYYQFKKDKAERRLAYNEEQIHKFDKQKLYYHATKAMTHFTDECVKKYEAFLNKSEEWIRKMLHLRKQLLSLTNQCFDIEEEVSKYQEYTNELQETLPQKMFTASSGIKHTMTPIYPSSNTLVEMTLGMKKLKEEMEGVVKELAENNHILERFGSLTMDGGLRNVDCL

The target in a further test is PIM1 (Homo sapiens (Human), UniProt P11309). Put plainly: PIM1 kinase selectivity assay. As to the method:
PIM1 (5-20 mU diluted in 50 mM Tris pH 7.5, 0.1 mM EGTA, 0.1% b-mercaptoethanol, 1 mg/ml BSA) is assayed against a substrate peptide ([…]) in a final volume of 25.5 μl containing 50 mM Tris pH 7.5, 0.05% b-mercaptoethanol, 300 μM substrate peptide, 10 mM magnesium acetate and 0.02 mM [33P-g-ATP] (50-1000 cpm/pmole) and incubated for 30 min at room temperature. Assays are stopped by addition of 5 μl of 0.5 M (3%) orthophosphoric acid and then harvested onto P81 Unifilter plates with a wash buffer of 50 mM orthophosphoric acid.

The next test addresses p38aMAPK (Homo sapiens (Human), UniProt Q16539). As to the kind of experiment: p38aMAPK kinase selectivity assay. Here is the method: SAPK 2a/p38 (5-20 mU diluted in 50 mM Tris pH 7.5, 0.1 mM EGTA, 0.1 mM Na3VO4, 0.1% b-mercaptoethanol, 1 mg/ml BSA) is assayed against MBP in a final volume of 25.5 μl containing 25 mM Tris pH 7.5, 0.1 mM EGTA, 0.33 mg/ml MBP, 10 mM magnesium acetate and 0.05 mM [33P-g-ATP] (50-1000 cpm/pmole) and incubated for 30 min at room temperature. Assays are stopped by addition of 5 μl of 0.5 M (3%) orthophosphoric acid and then harvested onto P81 Unifilter plates with a wash buffer of 50 mM orthophosphoric acid.

The target of a further test is MNK2 (Homo sapiens (Human), UniProt Q9HBH9). As to the kind of experiment: MNK2 kinase selectivity assay. Here is the method:
5-20 mU of MNK2 (diluted in 50 mM Tris (pH 7.5), 0.1 mM EGTA, 1 mg/ml BSA, 0.1%, b-Mercaptoethanol) is assayed against substrate peptide (eIF4E) in a final volume of 25.5 μl containing 50 mM Tris (pH 7.5), 0.1 mM EGTA, 0.1%, b-Mercaptoethanol, 0.5 mg/ml substrate peptide, 10 mM magnesium acetate and 0.05 mM [33P-g-ATP](500-1000 cpm/pmole) and incubated for 30 mins at room temperature. Assays are stopped by addition of 5 μl of 0.5M (3%) orthophosphoric acid. Assays are harvested onto P81 Unifilter plates using a wash buffer of 50 mM orthophosphoric acid.

In the next test the target is ROCK2 (Homo sapiens (Human), UniProt O75116). Put plainly: ROCK2 kinase selectivity assay. As to the method:
ROCK-II (ROKa) (5-20 mU diluted in 50 mM Tris pH 7.5, 0.1 mM EGTA, 0.1% b-mercaptoethanol, 1 mg/ml BSA) is assayed against Long S6 substrate peptide ([…]) in a final volume of 25.5 μl containing 50 mM Tris pH 7.5, 0.1 mM EGTA, 30 μM Long S6 substrate peptide, 10 mM magnesium acetate and 0.02 mM [33P-g-ATP] (50-1000 cpm/pmole) and incubated for 30 min at room temperature. Assays are stopped by addition of 5 μl of 0.5 M (3%) orthophosphoric acid and then harvested onto P81 Unifilter plates with a wash buffer of 50 mM orthophosphoric acid.

The next test has as its target JNK1 (Homo sapiens (Human), UniProt P45983). Put plainly: JNK1 kinase selectivity assay. As to the method: JNK1a1/SAPK1c (5-20 mU diluted in 50 mM Tris pH 7.5, 0.1 mM EGTA, 1 mg/ml BSA, 0.1% b-mercaptoethanol) is assayed against ATF2 (activating transcription factor in a final volume of 25.5 μl in 50 mM Tris pH 7.5, 0.1 mM EGTA, 0.1% b-Mercaptoethanol, ATF2 (3 μM), 10 mM magnesium acetate and 0.02 mM [33P-g-ATP] (500-1000 cpm/pmole) and incubated for 30 min at room temperature. Assays are stopped by addition of 5 μl of 0.5 M (3%) orthophosphoric acid and then harvested onto P81 Unifilter plates with a wash buffer of 50 mM orthophosphoric acid.

For another test, the target named is EPH-A2 (Homo sapiens (Human), UniProt P29317). Put plainly: EPH-A2 kinase selectivity assay. As to the method:
EPH-A2 (5-20 mU diluted in 50 mM Tris pH 7.5, 0.1 mM EGTA, 1 mg/ml BSA) is assayed against a substrate peptide (Poly Glut Tyr) in a final volume of 25.5 μl containing 50 mM Tris pH 7.5, 0.1 mg/ml substrate peptide, 10 mM magnesium acetate and 0.05 mM [33P-g-ATP] (50-1000 cpm/pmole) and incubated for 30 min at room temperature. Assays are stopped by addition of 5 μl of 0.5 M (3%) orthophosphoric acid and then harvested onto P81 Unifilter plates with a wash buffer of 50 mM orthophosphoric acid.

EPH-A2, sequence (P29317 24-976, species assumed): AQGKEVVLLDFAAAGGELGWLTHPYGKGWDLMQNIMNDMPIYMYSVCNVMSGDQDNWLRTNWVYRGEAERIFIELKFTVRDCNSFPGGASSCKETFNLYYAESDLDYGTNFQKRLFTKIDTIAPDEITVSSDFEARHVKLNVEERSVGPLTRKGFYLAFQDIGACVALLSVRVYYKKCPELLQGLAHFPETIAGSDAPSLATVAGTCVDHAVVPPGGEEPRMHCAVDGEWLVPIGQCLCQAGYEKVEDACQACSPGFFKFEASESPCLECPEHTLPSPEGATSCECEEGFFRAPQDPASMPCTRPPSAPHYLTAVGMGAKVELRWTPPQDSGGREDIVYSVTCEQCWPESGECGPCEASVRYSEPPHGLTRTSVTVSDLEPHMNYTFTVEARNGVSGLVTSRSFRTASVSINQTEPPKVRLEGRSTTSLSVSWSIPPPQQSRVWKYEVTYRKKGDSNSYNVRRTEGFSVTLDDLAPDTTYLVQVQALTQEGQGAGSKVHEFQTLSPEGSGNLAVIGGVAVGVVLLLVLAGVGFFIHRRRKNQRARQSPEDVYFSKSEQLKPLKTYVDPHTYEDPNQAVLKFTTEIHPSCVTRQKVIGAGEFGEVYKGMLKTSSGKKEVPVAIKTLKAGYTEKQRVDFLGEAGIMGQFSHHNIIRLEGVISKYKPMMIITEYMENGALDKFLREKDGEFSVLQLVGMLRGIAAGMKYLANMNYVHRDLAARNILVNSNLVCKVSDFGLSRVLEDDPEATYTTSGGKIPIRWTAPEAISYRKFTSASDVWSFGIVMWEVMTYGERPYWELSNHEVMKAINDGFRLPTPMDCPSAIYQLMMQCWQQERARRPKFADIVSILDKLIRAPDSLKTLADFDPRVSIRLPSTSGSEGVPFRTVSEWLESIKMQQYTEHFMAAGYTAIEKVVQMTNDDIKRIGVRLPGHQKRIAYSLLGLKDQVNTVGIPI
JNK1, sequence (P45983 other isoform, or with tags, fused parts or gaps, species assumed): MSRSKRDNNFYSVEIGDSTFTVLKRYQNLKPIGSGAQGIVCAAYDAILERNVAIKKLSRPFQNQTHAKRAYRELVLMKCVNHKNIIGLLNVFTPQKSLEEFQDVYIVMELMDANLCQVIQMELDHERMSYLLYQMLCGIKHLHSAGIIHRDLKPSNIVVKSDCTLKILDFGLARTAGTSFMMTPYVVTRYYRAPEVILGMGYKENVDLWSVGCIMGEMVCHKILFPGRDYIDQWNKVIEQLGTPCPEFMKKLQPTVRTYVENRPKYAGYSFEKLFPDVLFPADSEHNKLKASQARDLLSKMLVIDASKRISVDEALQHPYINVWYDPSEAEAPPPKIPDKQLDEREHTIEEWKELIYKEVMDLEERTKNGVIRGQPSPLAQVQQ
PIM1, sequence (P11309 whole entry, species assumed): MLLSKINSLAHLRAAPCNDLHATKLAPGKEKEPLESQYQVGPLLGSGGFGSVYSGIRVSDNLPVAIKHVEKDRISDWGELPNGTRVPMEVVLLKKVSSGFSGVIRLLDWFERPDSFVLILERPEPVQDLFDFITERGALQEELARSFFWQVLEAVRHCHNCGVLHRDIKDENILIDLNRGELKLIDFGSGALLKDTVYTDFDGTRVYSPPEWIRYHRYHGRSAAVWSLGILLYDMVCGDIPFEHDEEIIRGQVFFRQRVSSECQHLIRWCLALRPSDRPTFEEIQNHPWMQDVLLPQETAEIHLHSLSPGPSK
MNK2, sequence (Q9HBH9 whole entry, species assumed): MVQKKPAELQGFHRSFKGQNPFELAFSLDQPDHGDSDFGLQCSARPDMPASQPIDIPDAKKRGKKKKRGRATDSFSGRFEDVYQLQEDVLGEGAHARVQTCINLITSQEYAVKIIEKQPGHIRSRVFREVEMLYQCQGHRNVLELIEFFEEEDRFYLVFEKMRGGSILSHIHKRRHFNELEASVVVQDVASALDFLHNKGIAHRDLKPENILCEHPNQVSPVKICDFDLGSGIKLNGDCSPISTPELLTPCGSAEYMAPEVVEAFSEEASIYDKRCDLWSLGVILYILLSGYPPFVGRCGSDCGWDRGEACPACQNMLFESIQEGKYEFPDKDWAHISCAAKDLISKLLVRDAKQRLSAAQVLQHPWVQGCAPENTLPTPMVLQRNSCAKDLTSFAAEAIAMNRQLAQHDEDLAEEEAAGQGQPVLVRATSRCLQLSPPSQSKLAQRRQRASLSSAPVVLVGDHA
ROCK2, sequence (O75116 whole entry, species assumed): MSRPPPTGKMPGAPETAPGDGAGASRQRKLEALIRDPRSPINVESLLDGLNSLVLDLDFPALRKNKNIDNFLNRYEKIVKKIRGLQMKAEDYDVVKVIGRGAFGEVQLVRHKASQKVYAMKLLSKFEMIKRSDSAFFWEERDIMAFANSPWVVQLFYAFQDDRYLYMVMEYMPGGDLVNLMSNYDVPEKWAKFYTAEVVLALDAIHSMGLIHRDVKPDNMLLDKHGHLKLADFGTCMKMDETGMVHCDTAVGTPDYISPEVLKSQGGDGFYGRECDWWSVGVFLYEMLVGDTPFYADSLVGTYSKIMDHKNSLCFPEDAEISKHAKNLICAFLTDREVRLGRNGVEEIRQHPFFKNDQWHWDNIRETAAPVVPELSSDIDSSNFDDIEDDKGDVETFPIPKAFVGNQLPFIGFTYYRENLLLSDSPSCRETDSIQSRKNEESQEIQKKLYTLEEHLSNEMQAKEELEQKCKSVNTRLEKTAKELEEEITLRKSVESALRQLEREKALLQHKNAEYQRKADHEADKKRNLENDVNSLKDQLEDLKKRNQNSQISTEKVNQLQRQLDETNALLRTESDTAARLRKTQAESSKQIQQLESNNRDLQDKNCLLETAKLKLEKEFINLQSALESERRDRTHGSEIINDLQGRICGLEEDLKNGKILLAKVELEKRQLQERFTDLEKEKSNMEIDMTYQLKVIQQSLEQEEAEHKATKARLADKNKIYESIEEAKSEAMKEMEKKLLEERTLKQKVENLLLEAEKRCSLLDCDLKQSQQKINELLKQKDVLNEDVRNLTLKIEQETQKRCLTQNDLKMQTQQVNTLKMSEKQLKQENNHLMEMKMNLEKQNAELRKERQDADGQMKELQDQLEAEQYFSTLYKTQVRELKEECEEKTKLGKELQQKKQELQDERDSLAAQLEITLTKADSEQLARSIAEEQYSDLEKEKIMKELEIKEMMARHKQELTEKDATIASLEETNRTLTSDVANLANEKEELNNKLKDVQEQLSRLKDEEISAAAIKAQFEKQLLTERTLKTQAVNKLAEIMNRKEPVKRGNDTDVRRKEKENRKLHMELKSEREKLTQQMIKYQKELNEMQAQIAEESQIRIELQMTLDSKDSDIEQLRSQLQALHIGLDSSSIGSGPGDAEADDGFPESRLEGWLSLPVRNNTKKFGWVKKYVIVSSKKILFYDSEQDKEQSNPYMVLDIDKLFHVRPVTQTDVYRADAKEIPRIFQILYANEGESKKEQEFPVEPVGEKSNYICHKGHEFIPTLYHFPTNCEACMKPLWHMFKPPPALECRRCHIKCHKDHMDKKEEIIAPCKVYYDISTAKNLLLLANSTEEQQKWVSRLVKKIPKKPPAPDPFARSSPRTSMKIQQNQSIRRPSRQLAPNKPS
p38aMAPK, sequence (Q16539 whole entry): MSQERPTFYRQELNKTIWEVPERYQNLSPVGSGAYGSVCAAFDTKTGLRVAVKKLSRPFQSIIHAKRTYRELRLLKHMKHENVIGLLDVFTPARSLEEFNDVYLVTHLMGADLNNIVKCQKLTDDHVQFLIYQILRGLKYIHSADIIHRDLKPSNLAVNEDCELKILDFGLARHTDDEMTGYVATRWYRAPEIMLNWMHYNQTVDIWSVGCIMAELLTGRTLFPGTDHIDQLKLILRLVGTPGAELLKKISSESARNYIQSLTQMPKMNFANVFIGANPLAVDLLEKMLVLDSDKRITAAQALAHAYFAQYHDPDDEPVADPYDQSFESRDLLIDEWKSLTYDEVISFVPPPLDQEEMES

Regarding `c1cc2[nH]nc3c2c(n1)N(C1CCC1)CCC3` [Example 22, 6-cyclobutyl-6,7,8,9-tetrahydro-2H-1,2,5,6-tetraazabenzo[cd]azulene], the “percentage inhibition of ULK2” value on ULK2 came out at 12 percentage. Besides, on Src, the “percentage inhibition of Src” value worked out at 13 percentage. On TBK1, the “percentage inhibition of TBK1” value was 0 percentage. In addition, the “percentage inhibition of PIM1” value on PIM1 stood at 0 percentage. For the same compound, the “percentage inhibition of p38aMAPK” value on p38aMAPK came out at 4 percentage. Further, the “percentage inhibition of MNK2” value on MNK2 is reported as 0 percentage. Also, the “percentage inhibition of ROCK2” value on ROCK2 amounted to 5 percentage. The “percentage inhibition of JNK1” value on JNK1 came to 0 percentage. For the same compound, on EPH-A2, the “percentage inhibition of EPH-A2” value is 0 percentage.
Take `c1cc2[nH]nc3c2c(n1)N(C1CCCC1)CCC3` [Example 23, 6-cyclopentyl-6,7,8,9-tetrahydro-2H-1,2,5,6-tetraazabenzo[cd]azulene]: on ULK2, the “percentage inhibition of ULK2” value is given as 1 percentage. Moreover, the “percentage inhibition of Src” value at Src is 0 percentage. Besides, the “percentage inhibition of TBK1” value on TBK1 is listed as 0 percentage. Also, on PIM1, the “percentage inhibition of PIM1” value is 0 percentage. For the same compound, the “percentage inhibition of p38aMAPK” value on p38aMAPK was determined as 0 percentage. The “percentage inhibition of MNK2” value at MNK2 is recorded as 0 percentage. For the same compound, at ROCK2, the “percentage inhibition of ROCK2” value was 0 percentage. The “percentage inhibition of JNK1” value on JNK1 is given as 0 percentage. For the same compound, the “percentage inhibition of EPH-A2” value on EPH-A2 was 0 percentage.
As for `c1cc2[nH]nc3c2c(n1)N(C1CCOCC1)CCC3` [Example 29, 6-(tetrahydro-2H-pyran-4-yl)-6,7,8,9-tetrahydro-2H-1,2,5,6-tetraazabenzo[cd]azulene], the “percentage inhibition of ULK2” value at ULK2 amounted to 7 percentage. Besides, on Src, the “percentage inhibition of Src” value was determined as 0 percentage. Further, the “percentage inhibition of TBK1” value on TBK1 was 0 percentage. The “percentage inhibition of PIM1” value at PIM1 was 0 percentage. For the same compound, the “percentage inhibition of p38aMAPK” value on p38aMAPK was 0 percentage. In addition, on MNK2, the “percentage inhibition of MNK2” value came to 0 percentage. Further, the “percentage inhibition of ROCK2” value at ROCK2 is 11 percentage. For the same compound, at JNK1, the “percentage inhibition of JNK1” value turned out to be 0 percentage. Moreover, the “percentage inhibition of EPH-A2” value on EPH-A2 came out at 0 percentage.
With `CN1CCC(N2Cc3ccccc3-c3n[nH]c4ccnc2c34)CC1` [Example 55], the “percentage inhibition of ULK2” value on ULK2 was found to be 31 percentage. Further, the “percentage inhibition of Src” value at Src is 1 percentage. In addition, the “percentage inhibition of TBK1” value on TBK1 stood at 5 percentage. Further, the “percentage inhibition of PIM1” value at PIM1 came to 26 percentage. Further, the “percentage inhibition of p38aMAPK” value at p38aMAPK stood at 6 percentage. At MNK2, the “percentage inhibition of MNK2” value is 40 percentage. Moreover, at ROCK2, the “percentage inhibition of ROCK2” value worked out at 14 percentage. Moreover, at JNK1, the “percentage inhibition of JNK1” value was 49 percentage. The “percentage inhibition of EPH-A2” value at EPH-A2 is 0 percentage.
In the case of `CC(C)n1ncc2c1CN(C1CCN(C)CC1)c1nccc3[nH]nc-2c13` [Example 68], on ULK2, the “percentage inhibition of ULK2” value is listed as 10 percentage. Also, at Src, the “percentage inhibition of Src” value is recorded as 0 percentage. Besides, the “percentage inhibition of TBK1” value on TBK1 amounted to 5 percentage. On PIM1, the “percentage inhibition of PIM1” value came out at 77 percentage. Moreover, the “percentage inhibition of p38aMAPK” value at p38aMAPK turned out to be 0 percentage. Moreover, on MNK2, the “percentage inhibition of MNK2” value came to 18 percentage. Besides, the “percentage inhibition of ROCK2” value on ROCK2 is given as 21 percentage. Also, the “percentage inhibition of JNK1” value on JNK1 is recorded as 48 percentage. For the same compound, at EPH-A2, the “percentage inhibition of EPH-A2” value was 0 percentage.
